The target of series [1] is T1, AGE-BSA previously crosslinked to the collagen (Bos taurus, UniProt P02769).
T1 construct: Bovine Serum Albumin (Type V), (BSA) Calbiochem; purchased Calbiochem (BSA Type V); Collaborative Biomedical Products (Biocoat collagen plates)
The series can be described thus: Cross-Link Breaking Assay (sandwich enzyme immunoassay). It is filed as biochemical. As to conditions: for Breaking Anti-AGE: anti-AGE antibody; for Breaking Anti-BSA: anti-BSA antibody. The method, then: The present invention also involves a novel sandwich enzyme immunoassay used to ascertain the ability of test compounds to “break” or reverse already formed advanced glycosylation endproducts by detecting the breaking of AGE (Advanced glycosylation endproduct) moieties from AGE-crosslinked protein. This assay comprises:
a) incubation of AGE-modified bovine serum albumin (AGE BSA) on collagen-coated wells of microtiter plates for a period of 2-6 hours' at a temperature of 37° C.
b) washing of the wells with PBS-Tween;
c) application of the test compounds to the washed wells of step b;
d) incubation of the test compounds applied to the washed wells for an additional 12-24 hours at a temperature of about 37° C.; and
e) detection of the AGE-breaking using an antibody raised against AGE-ribonuclease or cross-link breaking with an antibody against BSA.
In order to ascertain the ability of the compounds of the instant invention to “break” or reverse already formed advanced glycosylation endproducts, a novel sandwich enzyme immunoassay was developed which detects breaking of AGE (Advanced glycosylation endproduct) moieties from AGE-crosslinked protein. The assay utilizes collagen-coated 96 well microtiter plates that are obtained commercially. […] Following an incubation period of 16 hours (37° C.) cross-link-breaking is detected using an antibody raised against AGE-ribonuclease or with an antibody against BSA. […] Details of the assay are as follows:
1. AGE-BSA stock solutions were prepared as follows. Sodium phosphate buffer (0.4 M) was prepared by dissolving 6 grams of monobasic sodium phosphate in 100 ml of distilled water, 7 grams of dibasic sodium phosphate (0.4 M) in 100 ml of distilled water and adjusting the pH of the dibasic solution to 7.4 with the monobasic solution. Sodium azide (0.02 grams) was added per 100 ml volume to inhibit bacterial growth. The BSA solution was prepared as follows: 400 mg of Type V BSA (bovine serum albumin) was added for each ml of sodium phosphate buffer (above). A 400 mM glucose solution was prepared by dissolving 7.2 grams of dextrose in 100 ml of sodium phosphate buffer (above). The BSA and glucose solutions were mixed 1:1 and incubated at 37° C. for 12 weeks. The pH of the incubation mixture was monitored weekly and adjusted to pH 7.4 if necessary. After 12 weeks, the AGE-BSA solution was dialyzed against PBS for 48 hours with four buffer changes, each at a 1:500 ratio of solution to dialysis buffer. Protein concentration was determined by the micro-Lowry method. The AGE-BSA stock solution was aliquoted and stored at −20° C.
2. Working solutions for crosslinking and breaking studies were prepared as follows. Test compounds were dissolved in PBS and the pH was adjusted to pH 7.4 if necessary. AGE-BSA stock solution was diluted in PBS to measure maximum crosslinking and in the inhibitor solution for testing inhibitory activity of compounds. The concentration of AGE-BSA necessary to achieve the optimum sensitivity was determined by initial titration of each lot of AGE-BSA.
3. Wash buffer (“PBS-Tween”) was, prepared as follows. PBS was prepared by dissolving the following salts in one liter of distilled water: NaCl, 8 grams; KCl, 0.2 gram, KH2PO4. […] Tween-20 was added to a final concentration of 0.05% (vol/vol).
4. Substrates for detection of secondary antibody binding were prepared by diluting the HRP substrate buffer 1:10 in distilled water and mixing with ABTS chromogen 1:50 just prior to use.
1. Biocoat plates were blocked with 300 μl of “Superbloc”. Plates were blocked for one hour at room temperature and were washed with PBS-Tween three times with the Dynatech platewasher before addition of test reagents.
2. Each experiment was set up in the following manner. The first three wells of the Biocoat plate were used for the reagent blank. Fifty microliters of solutions AGE-BSA were added to test wells in triplicate and only PBS in blank wells.

Series [2] concerns the target cross-linking of glycated bovine serum albumin (AGE-BSA) to the rat tail tendon collagen-coated 96-well plate (Bos taurus, UniProt P02769). Kind of series: Cross-Linking Inhibition Assay. As to conditions: for inhibition at 10000 µM: read-out: Relative Cross-link Inhibition (at 10 mM).
Protocol: The following method was used to evaluate the ability of the compounds of the present invention to inhibit the cross-linking of glycated bovine serum albumin (AGE-BSA) to the rat tail tendon collagen-coated 96-well plate.
The blocking solution was removed from the wells by, washing the plate twice with PBS-'Tween 20 solution (0.05% Tween 20) using a NUNq-multiprobe or Dynatech ELISA-plate washer. Cross-linking of AGE-BSA (1 to 10 mg per well depending on the batch of AGE-BSA) to rat tail tendon collagen coated plate was performed with and without the testing ‘compound dissolved in PBS buffer at pH 7.4 at the desired concentrations by the, addition of 50 μl each of the AGE-BSA diluted in PBS or in the solution of test compound at 37° C. for 4 hours.
Unbrowned BSA in PBS buffer with or without testing compound were added to the separate wells as the blanks. The un-cross-linked AGE-BSA was then removed by washing the wells three times with PBS-Tween buffer. The amount of AGE-BSA cross-linked to the tail tendon collagen-coated plate was then quantitated using a polyclonal antibody raised against AGE-RNase. After a one-hour incubation period, AGE antibody was removed by washing 4 times with PBS-Tween.
The bound AGE antibody was then detected with the addition of horseradish peroxidase-conjugated secondary antibody—goat anti-rabbit immunoglobulin and incubation for 30 minutes. […] The reaction was allowed for an additional 15 minutes and the absorbance was read at 410 nm in a Dynatech plate reader.

Where “and” joins values, the source holds several entries; their conditions need not be identical. Equal values may be shown once. Read-outs that look alike come from different tables or passages of the source.

A word on the IC50: it is the concentration that gives 50% inhibition. As usually defined, the inhibition is the drop in the measured response relative to a control, in per cent.

T1 sequence (P02769 25-607): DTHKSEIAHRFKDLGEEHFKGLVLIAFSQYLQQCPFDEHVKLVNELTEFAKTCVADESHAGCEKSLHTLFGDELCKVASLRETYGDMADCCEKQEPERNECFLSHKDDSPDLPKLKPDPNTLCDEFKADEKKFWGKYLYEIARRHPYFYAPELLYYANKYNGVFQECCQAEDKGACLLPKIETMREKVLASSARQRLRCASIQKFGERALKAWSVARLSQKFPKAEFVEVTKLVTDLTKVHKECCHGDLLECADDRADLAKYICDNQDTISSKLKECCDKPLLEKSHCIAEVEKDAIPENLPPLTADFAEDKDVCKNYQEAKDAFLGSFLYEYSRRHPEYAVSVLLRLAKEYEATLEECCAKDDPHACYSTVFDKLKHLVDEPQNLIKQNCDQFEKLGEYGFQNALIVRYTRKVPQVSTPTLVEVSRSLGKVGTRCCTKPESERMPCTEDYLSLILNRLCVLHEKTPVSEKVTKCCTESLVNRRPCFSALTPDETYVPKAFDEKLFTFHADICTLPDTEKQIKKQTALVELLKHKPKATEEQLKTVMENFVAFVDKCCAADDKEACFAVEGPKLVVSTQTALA
T1 sequence (P02454 152-1207 partner limits assumed): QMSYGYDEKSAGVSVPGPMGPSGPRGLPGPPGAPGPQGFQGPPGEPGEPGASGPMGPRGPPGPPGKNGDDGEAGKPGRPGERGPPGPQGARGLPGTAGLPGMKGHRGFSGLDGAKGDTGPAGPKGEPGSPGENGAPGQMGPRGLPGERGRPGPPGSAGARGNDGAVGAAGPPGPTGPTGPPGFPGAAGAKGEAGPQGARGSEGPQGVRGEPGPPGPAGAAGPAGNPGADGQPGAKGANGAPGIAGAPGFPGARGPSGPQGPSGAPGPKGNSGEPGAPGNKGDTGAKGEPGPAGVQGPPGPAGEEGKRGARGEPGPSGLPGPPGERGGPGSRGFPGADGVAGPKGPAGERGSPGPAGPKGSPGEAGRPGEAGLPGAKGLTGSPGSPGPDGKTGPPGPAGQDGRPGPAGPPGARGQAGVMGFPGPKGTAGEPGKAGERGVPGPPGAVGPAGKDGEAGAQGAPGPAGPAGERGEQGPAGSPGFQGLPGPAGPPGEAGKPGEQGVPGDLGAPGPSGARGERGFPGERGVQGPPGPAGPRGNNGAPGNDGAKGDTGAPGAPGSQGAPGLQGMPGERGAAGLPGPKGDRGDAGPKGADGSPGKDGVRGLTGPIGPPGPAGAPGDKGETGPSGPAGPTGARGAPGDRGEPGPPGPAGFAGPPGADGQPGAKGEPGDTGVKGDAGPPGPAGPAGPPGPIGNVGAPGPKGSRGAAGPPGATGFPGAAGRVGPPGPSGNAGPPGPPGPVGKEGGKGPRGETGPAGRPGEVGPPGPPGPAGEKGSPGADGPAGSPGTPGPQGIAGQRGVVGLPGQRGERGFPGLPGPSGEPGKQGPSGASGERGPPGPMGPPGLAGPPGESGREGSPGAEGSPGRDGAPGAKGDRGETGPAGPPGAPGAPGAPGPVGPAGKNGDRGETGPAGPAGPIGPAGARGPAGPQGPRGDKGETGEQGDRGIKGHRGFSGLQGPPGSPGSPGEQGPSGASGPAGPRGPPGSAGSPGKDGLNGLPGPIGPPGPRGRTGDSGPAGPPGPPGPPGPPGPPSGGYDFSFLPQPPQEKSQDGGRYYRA
T1 sequence (P02466 86-1125 partner limits assumed): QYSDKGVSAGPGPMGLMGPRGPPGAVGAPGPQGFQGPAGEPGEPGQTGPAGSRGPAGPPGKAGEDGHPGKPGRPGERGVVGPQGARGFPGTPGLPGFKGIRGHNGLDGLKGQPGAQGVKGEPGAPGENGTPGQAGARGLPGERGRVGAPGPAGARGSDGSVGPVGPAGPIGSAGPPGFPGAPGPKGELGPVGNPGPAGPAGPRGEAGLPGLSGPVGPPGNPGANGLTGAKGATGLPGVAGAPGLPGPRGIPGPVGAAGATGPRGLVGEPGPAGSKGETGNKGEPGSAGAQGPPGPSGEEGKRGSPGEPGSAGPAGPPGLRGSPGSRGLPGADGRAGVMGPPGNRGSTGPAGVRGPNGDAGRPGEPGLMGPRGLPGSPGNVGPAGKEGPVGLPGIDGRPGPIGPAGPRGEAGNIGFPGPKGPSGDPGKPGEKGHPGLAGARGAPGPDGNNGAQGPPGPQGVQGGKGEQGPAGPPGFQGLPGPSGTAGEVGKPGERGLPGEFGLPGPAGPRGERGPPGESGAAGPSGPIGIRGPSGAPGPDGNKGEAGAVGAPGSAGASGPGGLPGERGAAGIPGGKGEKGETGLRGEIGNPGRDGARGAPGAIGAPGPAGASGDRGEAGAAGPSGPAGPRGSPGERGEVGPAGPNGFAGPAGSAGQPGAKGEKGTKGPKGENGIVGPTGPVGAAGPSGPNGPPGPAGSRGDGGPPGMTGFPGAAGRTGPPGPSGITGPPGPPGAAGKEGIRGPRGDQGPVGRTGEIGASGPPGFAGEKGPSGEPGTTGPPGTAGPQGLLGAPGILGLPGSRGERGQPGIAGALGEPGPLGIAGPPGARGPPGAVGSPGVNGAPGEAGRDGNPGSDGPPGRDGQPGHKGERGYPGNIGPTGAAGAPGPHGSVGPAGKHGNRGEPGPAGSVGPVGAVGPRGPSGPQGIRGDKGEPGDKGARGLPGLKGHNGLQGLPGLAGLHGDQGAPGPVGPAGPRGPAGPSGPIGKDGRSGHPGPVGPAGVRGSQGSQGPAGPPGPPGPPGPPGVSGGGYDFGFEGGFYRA
Sequence of cross-linking of glycated bovine serum albumin (AGE-BSA) to the rat tail tendon collagen-coated 96-well plate (P02769 25-607): as the sequence (P02769 25-607) above

In the case of `COC(=O)C[n+]1ccsc1.[Br-]` [3-(2-Methoxy-2-Oxoethyl)-Thiazolium Bromide], in series [1] (at 30 mM), the “Breaking Anti-AGE” value was 38% and the “Breaking Anti-BSA” value is given as 41%. This molecule registered an IC50 in series [2] of 250 µM.

Regarding `O=C(O)C[n+]1csc2ccccc21.[Br-]` [3-(carboxymethyl)-benzothiazolium bromide], in series [1] (at 30 mM), the “Breaking Anti-AGE” value was 63.7% and the “Breaking Anti-BSA” value amounted to 17.9%. Further, the inhibition at 10000 µM in series [2] is 16%.

Take `Nc1sc2ccccc2[n+]1N` [2,3-diaminio-benzothiazolium mesitylenesulfonate]: in series [1] (at 30 mM), the “Breaking Anti-AGE” value was 87% and the “Breaking Anti-BSA” value was found to be 54%.

For the molecule `COc1ccc(C(=O)C[n+]2c(N)sc3cc(N)ccc32)cc1.[Br-]` [2,6-diamino-3 (2-(4′-methoxyphenyl)-2-oxoethyl]benzothiazolium bromide], in series [1] (at 10 mM), the “Breaking Anti-AGE” value is 29% and the “Breaking Anti-BSA” value came to 35%.

For the molecule `CCCCCc1ccc(C(=O)C[n+]2csc(CCO)c2C)cc1.[Br-]` [3-(2-(4′-n-pentylphenyl)-2-oxoethyl]-4-methyl-5-(2′-hydroxyethyl)-thiazolinium], in series [2] (3 mM), the “Relative Cross-link Inhibition” value is listed as 52% @ 3 mM.

As for `O=C(C[n+]1ccsc1)c1ccc2c(c1)OCCCO2.[Br-]` [3-(2-(3′,4′-trimethylenedioxyphenyl)-2-oxoethyl]-thiazolium bromide], in series [1] (at 10 mM), the “Breaking Anti-AGE” value is on record as 17% and the “Breaking Anti-BSA” value is 18%.

As for `NC(=O)C[n+]1csc2ccccc21.[Br-]` [3-(2-amino-2-oxoethyl)-benzothiazolium bromide], in series [1] (concentration not given), the “Breaking Anti-AGE” value was found to be 77% and the “Breaking Anti-BSA” value stood at 65%. Also, the IC50 in series [1] (detection with anti-AGE antibody, read-out: IC50 (mM) Anti-AGE) stood at 0.4 mM. In series [2], inhibition was half-maximal at 20 µM (IC50).

Regarding `COC(=O)c1ccc(NC(=O)C[n+]2csc(CCO)c2C)cc1O` [3-(2-(4′-carbmethoxy-3′-hydroxyanilino)-2-oxoethyl]-4-methyl-5-(2′-hydroxyethyl)-thiazolium bromide], in series [1] (at 10 mM), the “Breaking Anti-AGE” value is given as 24% and the “Breaking Anti-BSA” value is on record as 18%. In series [2], inhibition was half-maximal at 1760 µM (IC50).

For the molecule `C[n+]1ccn(CC(=O)c2cc(C(C)(C)C)c(O)c(C(C)(C)C)c2)c1` [1-methyl-3-(2-(3′,5′-di-tert-butyl-4′-hydroxyphenyl)-2-oxoethyl]-imidazolium bromide], in series [1] (at 10 mM), the “Breaking Anti-AGE” value was determined as 56% and the “Breaking Anti-BSA” value amounted to 38%. Moreover, the IC50 in series [2] stood at 4500 µM.

With `Cc1c(CCO)sc[n+]1CC(=O)Nc1c(C(C)C)cccc1C(C)C.[Br-]` [3-(2-(2′,6′-Diisopropylanilino)-2-oxoethyl]-4-methyl-5-(2′-hydroxyethyl)-thiazolium bromide], in series [1] (at 10 mM), the “Breaking Anti-AGE” value turned out to be 31% and the “Breaking Anti-BSA” value is recorded as 48%. In addition, the “Relative Cross-link Inhibition (at 10 mM)” value in series [2] (at 10 mM) is given as 19%.

For `Cc1c(CCO)sc[n+]1CC(N)=O.[Br-]` [3-(2-amino-2-oxoethyl)-4-methyl-5-(2-hydroxyethyl)thiazolium bromide], in series [1] (concentration not given), the “Breaking Anti-AGE” value was found to be 65% and the “Breaking Anti-BSA” value amounted to 57%. For the same molecule, the half-maximal inhibitory concentration (IC50) in series [2] amounted to 1420 µM.

Regarding `Nc1ccc2c(c1)sc(N)[n+]2CC(=O)c1ccc(F)cc1.[Br-]` [2,6-diamino-3 (2-(4′-fluorophenyl-2-oxoethyl]benzothiazolium bromide], in series [1] (at 10 mM), the “Breaking Anti-AGE” value was 24% and the “Breaking Anti-BSA” value was 40%.

Turning to `Nc1ccc2c(c1)sc(N)[n+]2CC(=O)c1ccc(Br)cc1.[Br-]` [2,6-diamino-3 (2-(4′-bromophenyl)-2-oxoethyl]benzothiazolium bromide], in series [1] (at 10 mM), the “Breaking Anti-AGE” value worked out at 27% and the “Breaking Anti-BSA” value was found to be 44%.

On to “3-(2-(3′-methoxyphenyl]-2-oxoethyl)-thiazolium bromide”, for which, in series [1] (at 10 mM), the “Breaking Anti-AGE” value came to 22% and the “Breaking Anti-BSA” value was 44%.

In series [1] (IC50 (mM) Anti-AGE, detection with anti-AGE antibody), `CC(=O)C[n+]1ccsc1.[Cl-]` [3-(2-methyl-2-oxoethyl)thiazolium chloride] displayed an IC50 of 0.83 mM. This molecule came in with a half-inhibitory concentration (IC50) in series [1] (IC50 (mM) Anti-BSA, detection with anti-BSA antibody) of 0.75 mM. In addition, in series [1] (concentration not given), the “Breaking Anti-AGE” value is listed as 56% and the “Breaking Anti-BSA” value stood at 93%.

`Cc1cc(C)c(S(=O)(=O)[O-])c(C)c1.Nc1sc(-c2ccc3c(c2)OCCCO3)c[n+]1N` [2,3-Diamino-5-(3′,4′-trimethylenedioxyphenyl)thiazolium mesitylene sulfonate]: in series [1] (at 1 mM), the “Breaking Anti-AGE” value was 13% and the “Breaking Anti-BSA” value came out at 42%.

`Cc1c[n+](CC(=O)c2ccccc2)cs1` [3-(2-phenyl-2-oxoethyl)-5-methyl-thiazolium bromide] gave an IC50 in series [2] of 12600 µM.

As for `CC(C)(C)C(=O)C[n+]1ccsc1.[Br-]` [3-(2-tert-butyl-2-oxoethyl)-thiazolium bromide], in series [1] (at 10 mM), the “Breaking Anti-AGE” value came to 28% and the “Breaking Anti-BSA” value was determined as 37%.

Regarding `Cc1c(CCO)sc[n+]1Cc1ccccc1.[Cl-]` [3-benzyl-5-(2-hydroxyethyl)-4-methyl thiazolium chloride], in series [1] (at 30 mM), the “Breaking Anti-AGE” value turned out to be 65% and the “Breaking Anti-BSA” value is 61%.

As for `Cc1c(CCO)sc[n+]1Cc1c(Cl)cccc1Cl.[Cl-]` [3-(2′,6′-dichlorobenzyl)-4-methyl-5-(2′-15 hydroxyethyl)-thiazolium chloride], in series [1] (at 10 mM), the “Breaking Anti-AGE” value was 6% and the “Breaking Anti-BSA” value is 27%.

`Cc1sc[n+](CC(=O)c2cc(C(C)(C)C)c(O)c(C(C)(C)C)c2)c1C` [3-(2-(3′,5′-di-tert-butyl-4′-hydroxypheny].)-2-oxoethyl]-4,5-dimethyl-thiazolium bromide] registered an IC50 in series [2] of 160 µM.

Molecule `Cc1c(CCO)sc[n+]1CC(=O)c1ccc(Br)cc1` [3-(2-(41-bromophenyl]-2-oxoethyl)-4-methyl-5-(2-hydroxyethyl)thiazolium bromide] gave a 50% inhibitory concentration (IC50) in series [2] of 2950 µM.

On to `COc1cccc(C[n+]2csc(CCO)c2C)c1.[Cl-]` [3-(3′-methoxybenzyl)-4-methyl-5-(2′-hydroxyethyl)-thiazolium chloride], for which, in series [1] (at 10 mM), the “Breaking Anti-AGE” value was 4% and 14%; the “Breaking Anti-BSA” value was 19% and 25%.

Regarding `Cc1c(CCO)sc[n+]1Cc1ccccc1[N+](=O)[O-].[Br-]` [3-(2′-nitrobenzyl)-4-methyl-5-(2′-hydroxyethyl)-thiazolium bromide], in series [1] (at 10 mM), the “Breaking Anti-AGE” value is listed as 11% and the “Breaking Anti-BSA” value worked out at 13%.

Take `C=Cc1sc[n+](CC(=O)c2cc(C(C)(C)C)c(O)c(C(C)(C)C)c2)c1C` [3-(2-(3′,5′-tert-butyl-4′-hydroxyphenyl)-2-oxoethyl)-4-methyl-5-vinyl-thiazolium bromide]: in series [1] (at 0.3 mM), the “Breaking Anti-AGE” value was 32% and the “Breaking Anti-BSA” value is given as 50%. Further, the “IC50 (mM) Anti-BSA” value in series [1] (detection with anti-BSA antibody) was “ND/0/60%”.

`COC(=O)C[n+]1csc(CCO)c1C` [3-(2-methoxy-2-oxoethyl)-4-methyl-5-(2-hydroxyethyl)-thiazolium bromide]: the inhibition at 10000 µM in series [2] was 38%.

For the molecule `O=C(C[n+]1ccsc1)c1ccc(Br)cc1.[Br-]` [3-(2-(4^1-bromophenyl]-2-oxoethyl)-thiazolium bromide], in series [1] (at 30 mM), the “Breaking Anti-AGE” value came to 76% and the “Breaking Anti-BSA” value is on record as 25%.

In the case of `NC(=O)C[n+]1ccsc1` [3-(2-amino-2-oxoethyl)-thiazolium bromide], the IC50 in series [2] was determined as 530 µM.

For the origin of these results see patent US20090088461A1, “Methods of Treating or Preventing Cardiac Disease Associated With a High Fat Diet” (Synvista Therapeutics, Inc., priority 2007, published 2009).
